Numbered stars: 1 amine (or outer) side, 2 acyl side, 3 side chain; on linkers, the order of the positions; unused ones are H or OH. Bridge positions count the residues as written; N and C are the ends. Peptide text beside a SMILES is read from it. * marks the point of attachment. Pyridine(2,6-diCH2) = c1cc(C[*:1])nc(C[*:2])c1; Pyrrolidin1yl(2S-Ac) = CC(=O)[C@@H]1CCCN1*; CH2COCH2 = O=C(C[*:1])C[*:2]
Key:
Kallikrein-7 = Kallikrein-7 (Homo sapiens, UniProt P49862); experiment: Inhibition of C-terminal poly-His-tagged human recombinant KLK7 (30 to 253 residues) transfected in CHO cells assessed as inhibition constant using KHLY-pNA as fluorogenic substrate incubated for 30 mins by fluorescence plate reader assay; format: cell-based
Chain of Kallikrein-7 (P49862 whole entry, the tested form may be a part): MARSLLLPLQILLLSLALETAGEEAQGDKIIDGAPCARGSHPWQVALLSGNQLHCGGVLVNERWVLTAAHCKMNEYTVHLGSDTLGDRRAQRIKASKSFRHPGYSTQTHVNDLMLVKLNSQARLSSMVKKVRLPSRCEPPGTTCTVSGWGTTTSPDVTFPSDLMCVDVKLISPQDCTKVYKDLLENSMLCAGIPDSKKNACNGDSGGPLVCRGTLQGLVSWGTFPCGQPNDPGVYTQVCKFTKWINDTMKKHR

Kallikrein-5 = target: T1, Kallikrein-5 (Homo sapiens, UniProt Q9Y337); experiment: Inhibition of C-terminal poly-His-tagged human recombinant KLK5 (30 to 293 residues) transfected in CHO cells assessed as inhibition constant using Boc-VPR-AMC as fluorogenic substrate incubated for 30 mins by fluorescence plate reader assay; format: cell-based
T1 sequence (Q9Y337 whole entry): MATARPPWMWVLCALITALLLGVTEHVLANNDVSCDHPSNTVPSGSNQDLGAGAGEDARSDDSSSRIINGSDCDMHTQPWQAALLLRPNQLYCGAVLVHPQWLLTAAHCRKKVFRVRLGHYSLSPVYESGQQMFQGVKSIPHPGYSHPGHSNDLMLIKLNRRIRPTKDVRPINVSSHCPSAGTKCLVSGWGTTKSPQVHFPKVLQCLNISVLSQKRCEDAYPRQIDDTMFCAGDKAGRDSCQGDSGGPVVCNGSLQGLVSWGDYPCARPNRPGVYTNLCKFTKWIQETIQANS

| Ki (Kallikrein-7) | Compound | further results |
| --- | --- | --- |
| 94 nM | CSCC[C@H](NC(=O)[C@@H]1CSCc2cccc(n2)CSC[C@H](NC(=O)[C@@H](N)CCCNC(=N)N)C(=O)N[C@@H](CC(=O)O)C(=O)N[C@@H](CO)C(=O)N[C@@H](CO)C(=O)N[C@@H](CCC(N)=O)C(=O)N1)C(=O)N[C@@H](CCC(N)=O)C(=O)NCC(=O)N[C@@H](CCC(N)=O)C(=O)N[C@H]1CSCc2cccc(n2)CSC[C@@H](C(=O)N2CCC[C@H]2C(=O)O)NC(=O)[C@H](CO)NC(=O)[C@H](CCCNC(=N)N)NC(=O)[C@H](Cc2ccc(O)cc2)NC(=O)[C@H](CC(C)C)NC1=O (H-RCDSSQCMQGQCLYRSCP-OH; linker 2-7, 12-17 via Pyridine(2,6-diCH2)) |  |
| 8.8 nM | CC(C)C[C@@H]1NC(=O)[C@@H](NC(=O)C(N)CCCNC(=N)N)CSCc2cccc(n2)CSC[C@@H](C(=O)N[C@@H](CO)C(=O)O)NC(=O)[C@H](CO)NC(=O)[C@H](CC(C)C)NC(=O)[C@H](Cc2ccc(O)cc2)NC1=O (single isomer, unassigned) |  |
| 17.5 nM | CC(C)C[C@@H]1NC(=O)[C@H](Cc2ccc(O)cc2)NC(=O)[C@H](CC(C)C)NC(=O)[C@@H](NC(=O)[C@@H]2CCCN2)CSCc2cccc(n2)CSC[C@@H](C(=O)N[C@@H](CO)C(=O)O)NC(=O)[C@H](C)NC1=O (H-PCLYLACS-OH; linker 2-7 via Pyridine(2,6-diCH2)) |  |
|  | CC(C)[C@@H]1NC(=O)[C@H](CCC(N)=O)NC(=O)[C@H](CCCNC(=N)N)NC(=O)[C@H]([C@@H](C)O)NC(=O)[C@@H](NC(=O)CN)CSCc2cccc(n2)CSC[C@@H](C(=O)N[C@@H](CCC(N)=O)C(=O)N[C@@H](CCC(N)=O)C(=O)N[C@H](C(=O)N2CCC[C@H]2C(=O)N[C@@H](C)C(=O)N[C@H]2CSCc3cccc(n3)CSC[C@@H](C(=O)N[C@@H](CC(N)=O)C(=O)O)NC(=O)[C@H](C)NC(=O)[C@H](CO)NC(=O)[C@@H]3CCCN3C2=O)[C@@H](C)O)NC1=O (H-GCTRQVCQQTPACPSACN-OH; linker 2-7, 13-17 via Pyridine(2,6-diCH2)) | Ki (Kallikrein-5): 7 nM |
| 50 nM | CC(=O)[C@@H]1CCCN1C(=O)[C@@H]1CSCc2cccc(n2)CSC[C@H](NC(=O)[C@@H]2CCCN2)C(=O)N[C@@H](CC(C)C)C(=O)N[C@@H](Cc2ccc(O)cc2)C(=O)N[C@@H](CC(C)C)C(=O)N[C@@H](CO)C(=O)N1 (H-PCLYLSC-{Pyrrolidin1yl(2S-Ac)}; linker 2-7 via Pyridine(2,6-diCH2)) |  |
| 36 nM | CC(C)C[C@@H]1NC(=O)[C@H](Cc2ccc(O)cc2)NC(=O)[C@H](CC(C)C)NC(=O)[C@@H](NC(=O)[C@@H]2CCCN2)CSCC(=O)CSC[C@@H](C(=O)N[C@@H](CO)C(=O)O)NC(=O)[C@H](CCC(N)=O)NC(=O)[C@H](C)NC1=O (H-PCLYLAQCS-OH; linker 2-8 via CH2COCH2) |  |
| 19 nM | CC(C)C[C@@H]1NC(=O)[C@H](Cc2ccc(O)cc2)NC(=O)[C@H](CC(C)C)NC(=O)[C@@H](NC(=O)[C@@H]2CCCN2)CSCc2cccc(n2)CSC[C@@H](C(=O)O)NC(=O)[C@H](C)NC1=O (mixture of isomers) |  |
| 66 nM | CC[C@H](C)[C@@H]1NC(=O)[C@H](CCCNC(=N)N)NC(=O)[C@H](Cc2ccc(O)cc2)NC(=O)[C@H](CC(C)C)NC(=O)[C@@H](NC(=O)[C@H](CCC(N)=O)NC(=O)[C@@H]2CCCN2C(=O)[C@@H]2CSCc3cccc(n3)CSC[C@H](NC(=O)[C@@H](N)Cc3c[nH]cn3)C(=O)N[C@@H](CCCNC(=N)N)C(=O)N[C@@H](CCCCN)C(=O)NCC(=O)N[C@@H](CC(C)C)C(=O)N[C@@H](CC(=O)O)C(=O)N[C@@H](CCCNC(=N)N)C(=O)N2)CSCc2cccc(n2)CSC[C@@H](C(=O)N[C@@H](CO)C(N)=O)NC1=O (H-HCRKGLDRCPQCLYRICS-NH2; linker 2-9, 12-17 via Pyridine(2,6-diCH2)) |  |
| 29.4 nM | CC(C)C[C@@H]1NC(=O)[C@@H](NC(=O)[C@@H]2CCCN2)CSCc2cccc(n2)CSC[C@@H](C(=O)N[C@@H](CO)C(=O)O)NC(=O)[C@H](CO)NC(=O)[C@H](CC(C)C)NC(=O)[C@H](Cc2ccc(O)cc2)NC1=O (H-PCLYLSCS-OH; linker 2-7 via Pyridine(2,6-diCH2)) |  |
|  | CC(C)C[C@@H]1NC(=O)[C@@H](NC(=O)[C@@H]2CCCN2)CSCC(=O)CSC[C@@H](C(=O)N[C@@H](CO)C(=O)O)NC(=O)[C@H](CCCNC(=N)N)NC(=O)[C@H](CO)NC(=O)[C@H](CC(C)C)NC(=O)[C@H](Cc2ccc(O)cc2)NC1=O (racemic) | Ki (Kallikrein-7; cho): 90 nM |
| 52 nM | CC(C)C[C@@H]1NC(=O)[C@@H](NC(=O)[C@@H]2CCCN2)CSCc2cccc(n2)CSC[C@@H](C(=O)N[C@@H](CO)C(=O)O)NC(=O)[C@H]([C@@H](C)O)NC(=O)[C@H](CC(C)C)NC(=O)[C@H](Cc2ccc(O)cc2)NC1=O (H-PCLYLTCS-OH; linker 2-7 via Pyridine(2,6-diCH2)) |  |
| 32 nM | CC[C@H](C)[C@@H]1NC(=O)[C@H](Cc2ccc(O)cc2)NC(=O)[C@H](CC(C)C)NC(=O)[C@@H](NC(=O)[C@@H](N)CCC(N)=O)CSCc2cccc(n2)CSC[C@@H](C(=O)N2CCC[C@H]2C(=O)N[C@@H](CO)C(=O)N[C@@H](C)C(=O)N[C@@H](C)C(=O)N[C@@H](CCCCN)C(=O)N[C@H]2CSCc3cccc(n3)CSC[C@@H](C(=O)N[C@@H](CCC(N)=O)C(N)=O)NC(=O)CNC(=O)[C@H](CC(N)=O)NC(=O)[C@H](CC(=O)O)NC2=O)NC(=O)[C@H](C)NC1=O (H-QCLYIACPSAAKCDNGCQ-NH2; linker 2-7, 13-17 via Pyridine(2,6-diCH2)) |  |
| 53 nM | CC(C)C[C@@H]1NC(=O)[C@@H](NC(=O)[C@@H]2CCCN2)CSCc2cccc(n2)CSC[C@@H](C(=O)N[C@@H](CO)C(=O)O)NC(=O)[C@H](CO)NC(=O)[C@H](CCCNC(=N)N)NC(=O)[C@H](Cc2ccc(O)cc2)NC1=O (H-PCLYRSCS-OH; linker 2-7 via Pyridine(2,6-diCH2)) |  |
| 7 nM | CCCCCCCCCCCCCCCC(=O)NCCCC[C@H](NC(=O)[C@H](CCC(=O)O)NC(=O)[C@H](Cc1ccc(O)cc1)NC(=O)[C@H](CCC(=O)O)NC(=O)COCCOCCNC(=O)c1ccc(-c2c3ccc(=O)cc-3oc3cc(O)ccc23)c(C(=O)O)c1)C(=O)N[C@@H](CCC(=O)O)C(=O)N[C@@H](Cc1ccc(O)cc1)C(=O)N[C@@H](CCC(=O)O)C(=O)NCCOCCOCC(=O)NCCCC[C@H](NC(=O)CNC(=O)[C@@H]1CSCC(=O)CSC[C@H](NC(=O)[C@@H]2CCCN2)C(=O)N[C@@H](CC(C)C)C(=O)N[C@@H](Cc2ccc(O)cc2)C(=O)N[C@@H](CCCC)C(=O)N[C@@H](C)C(=O)N[C@@H](CCCNC(=N)N)C(=O)N1)C(=O)NCC(N)=O |  |
| 12 nM | CC(C)C[C@@H]1NC(=O)[C@@H](NC(=O)C(N)CCC(N)=O)CSCc2cccc(n2)CSC[C@@H](C(=O)N[C@@H](CO)C(=O)O)NC(=O)[C@H](CO)NC(=O)[C@H](CC(C)C)NC(=O)[C@H](Cc2ccc(O)cc2)NC1=O (single isomer, unassigned) |  |
| 10.1 nM | CSCC[C@@H]1NC(=O)[C@H](Cc2ccc(O)cc2)NC(=O)[C@H](CC(C)C)NC(=O)[C@@H](NC(=O)[C@@H]2CCCN2)CSCC(=O)CSC[C@@H](C(=O)N[C@@H](CO)C(=O)O)NC(=O)[C@H](CCCNC(=N)N)NC(=O)[C@H](C)NC1=O (H-PCLYMARCS-OH; linker 2-8 via CH2COCH2) |  |

| Compound | Ki (Kallikrein-7) | further results |
| --- | --- | --- |
| CC(C)C[C@@H]1NC(=O)[C@@H](NC(=O)[C@@H]2CCCN2)CSCc2cccc(n2)CSC[C@@H](C(=O)N[C@@H](CO)C(=O)O)NC(=O)[C@H](CO)NC(=O)[C@H](CC(C)C)NC(=O)[C@H](Cc2ccccc2)NC1=O (H-PCLFLSCS-OH; linker 2-7 via Pyridine(2,6-diCH2)) | 220 nM |  |
| CC(C)C[C@@H]1NC(=O)[C@@H](NC(=O)[C@@H]2CCCN2)CSCc2cccc(n2)CSC[C@@H](C(=O)N[C@@H](CO)C(=O)O)NC(=O)[C@H](CO)NC(=O)[C@H](CCC(N)=O)NC(=O)[C@H](Cc2ccc(O)cc2)NC1=O (H-PCLYQSCS-OH; linker 2-7 via Pyridine(2,6-diCH2)) | 440 nM |  |
| CSCC[C@@H]1NC(=O)[C@H](Cc2ccc(O)cc2)NC(=O)[C@H](CC(C)C)NC(=O)[C@@H](NC(=O)[C@@H](N)CCC(N)=O)CSCC(=O)CSC[C@@H](C(=O)N[C@@H](CO)C(=O)N2CCC[C@H]2C(=O)N[C@H](C(=O)N[C@H]2CSCC(=O)CSC[C@@H](C(=O)N[C@@H](CCC(N)=O)C(=O)O)NC(=O)[C@H](Cc3ccc(O)cc3)NC(=O)[C@H](CCC(N)=O)NC(=O)[C@H](CCC(N)=O)NC(=O)[C@@H]3CCCN3C2=O)C(C)C)NC(=O)[C@H](CCCNC(=N)N)NC(=O)[C@H](C)NC1=O (H-QCLYMARCSPVCPQQYCQ-OH; linker 2-8, 12-17 via CH2COCH2) | 9 nM |  |
| CC(C)C[C@@H]1NC(=O)[C@@H](NC(=O)[C@@H](N)Cc2ccccc2)CSCC(=O)CSC[C@@H](C(=O)N[C@@H](CCC(N)=O)C(=O)N2CCC[C@H]2C(=O)N2CCC[C@H]2C(=O)N[C@@H](CCC(=O)O)C(=O)N[C@@H](C)C(=O)N[C@H]2CSCC(=O)CSC[C@@H](C(=O)N[C@@H](CCC(=O)O)C(=O)O)NC(=O)[C@H](CCC(N)=O)NC(=O)[C@H](CO)NC(=O)[C@@H]3CCCN3C2=O)NC(=O)[C@H](Cc2c[nH]c3ccccc23)NC(=O)[C@@H]2CCCN2C(=O)[C@H](Cc2c[nH]c3ccccc23)NC1=O (H-FCLWPWCQPPEACPSQCE-OH; linker 2-7, 13-17 via CH2COCH2) | > 1000 nM |  |
| CC(C)C[C@@H]1NC(=O)[C@H](Cc2ccc(O)cc2)NC(=O)[C@H](CC(C)C)NC(=O)[C@@H](N)CSCc2cccc(n2)CSC[C@@H](C(=O)N[C@@H](CO)C(=O)O)NC(=O)[C@H](C)NC1=O (H-CLYLACS-OH; linker 1-6 via Pyridine(2,6-diCH2)) | 200 nM |  |

From ChEMBL document CHEMBL5137037, “Phage Display Selected Cyclic Peptide Inhibitors of Kallikrein-Related Peptidases 5 and 7 and Their In Vivo Delivery to the Skin” (J Med Chem, 2022)
